Measured values from patent US5225528A, “Cyclic hexapeptide oxytocin antagonists” (priority 1990, dated 1993).
Where two headings read alike, the source gives them in different places. Numbered stars: 1 amine (or outer) side, 2 acyl side, 3 side chain; on linkers, the order of the positions; unused ones are H or OH. Square brackets hold non-standard residues; d marks the D form. Peptide text beside a SMILES is read from it. * marks the point of attachment. dPip(4-aza,4-Cbz) = O=C(O)[C@H]1CN(C(=O)OCc2ccccc2)CCN1; dPiz(1,6-dehydro) = O=C(O)[C@H]1CCC=NN1; d2Nal = N[C@H](Cc1ccc2ccccc2c1)C(=O)O; dNMeY = CN[C@H](Cc1ccc(O)cc1)C(=O)O; Ethylenediamine = C(CN[*:2])N[*:1]; d(hPhe) = N[C@H](CCc1ccccc1)C(=O)O; Pip(4-aza) = O=C(O)[C@@H]1CNCCN1; dNMeF = CN[C@H](Cc1ccccc1)C(=O)O; Pip = O=C(O)[C@@H]1CCCCN1; dPip = O=C(O)[C@H]1CCCCN1; Cbz = O=C(OCc1ccccc1)*; Bn = c1ccc(C*)cc1; OtBu = CC(C)(C)O*

Legend:
uterine OT receptors = target: T1, uterine OT receptors (Rattus norvegicus, UniProt P70536); experiment: [^3 H]OT binding to uterine OT receptors, crude membrane preparation of uteri from DES-treated rats; settings: for inhibition at 0.1 µM: @ 100 (nM)
T1 construct: from tissue; host or cells: uterus of DES-treated rats, crude membranes
T1 sequence (P70536 1-388): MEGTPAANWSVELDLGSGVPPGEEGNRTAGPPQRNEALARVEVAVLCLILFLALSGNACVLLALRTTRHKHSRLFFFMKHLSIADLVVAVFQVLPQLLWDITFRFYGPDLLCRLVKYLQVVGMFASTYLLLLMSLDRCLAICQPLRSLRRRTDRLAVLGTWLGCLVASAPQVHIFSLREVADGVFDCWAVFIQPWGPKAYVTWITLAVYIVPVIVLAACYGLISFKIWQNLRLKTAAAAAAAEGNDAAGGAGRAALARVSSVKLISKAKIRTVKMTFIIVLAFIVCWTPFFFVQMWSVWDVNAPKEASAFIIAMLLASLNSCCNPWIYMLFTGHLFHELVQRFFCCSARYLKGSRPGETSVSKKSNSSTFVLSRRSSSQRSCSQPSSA
Experimental: Competition studies were conducted at equilibrium (60 minutes; 22° C.) using 1 nM [^3 H]OT in the following assay buffer: 50 mM Tris-HCl, 5 mM MgCl2, and 0.1% BSA, pH 7.4.

AVP-V1 sites = target: T2, AVP-V1 sites (Rattus norvegicus, UniProt P30560); experiment: [^3 H]AVP binding to crude membrane preparation of male rat liver (AVP-V1 sites)
T2 construct: crude membrane preparation of male rat liver (AVP-V1 sites); from tissue; host or cells: male rat liver, crude membranes
Experimental: (§1) Nonspecific binding (5-10% of the total binding) was determined using 10 μM unlabeled AVP, and the binding reaction was terminated by filtration as described above for the [^3 H]OT binding assay.

AVP-V2 sites = target: T3, AVP-V2 sites (Rattus norvegicus, UniProt Q00788); experiment: [^3 H]AVP binding to crude membrane preparation of male rat kidney medulla (AVP-V2 sites)
T3 construct: male rat liver (AVP-V1 sites) or kidney medulla (AVP-V2 sites); from tissue; host or cells: male rat kidney medulla, crude membranes
Experimental: as §1

[1] = Receptor Binding Results IC50 (nM) [^3 H]-AVP-V1
[2] = rat uterus membranes, 1 nM [^3 H]OT, read-out: Receptor Binding Results IC50 (nM) [^3 H]OT
[3] = read-out: Receptor Binding Results IC50 (nM) [^3 H]-AVP-V1
[4] = read-out: Receptor Binding Results IC50 (nM) [^3 H]-AVP-V2
[5] = rat kidney medulla membranes, 2 nM [^3 H]AVP, read-out: Receptor Binding Results IC50 (nM) [^3 H]-AVP-V2
[6] = 1 h, read-out: [^3 H]OT: percent inhibition of radioligand at the given concentration
[7] = Receptor Binding Results IC50 (nM) [^3 H]-AVP-V2
[8] = Receptor Binding Results IC50 (nM) [^3 H]OT

T3 sequence (Q00788 whole entry): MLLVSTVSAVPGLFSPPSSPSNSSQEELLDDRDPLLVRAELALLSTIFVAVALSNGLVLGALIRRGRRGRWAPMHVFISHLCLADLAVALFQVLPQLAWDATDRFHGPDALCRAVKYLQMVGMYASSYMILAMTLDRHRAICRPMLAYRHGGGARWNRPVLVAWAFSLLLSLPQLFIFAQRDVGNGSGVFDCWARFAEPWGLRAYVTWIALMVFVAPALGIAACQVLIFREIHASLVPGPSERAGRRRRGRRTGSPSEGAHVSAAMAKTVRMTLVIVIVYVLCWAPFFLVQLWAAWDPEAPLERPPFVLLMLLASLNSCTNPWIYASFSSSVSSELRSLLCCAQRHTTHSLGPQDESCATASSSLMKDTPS
T2 sequence (P30560 whole entry): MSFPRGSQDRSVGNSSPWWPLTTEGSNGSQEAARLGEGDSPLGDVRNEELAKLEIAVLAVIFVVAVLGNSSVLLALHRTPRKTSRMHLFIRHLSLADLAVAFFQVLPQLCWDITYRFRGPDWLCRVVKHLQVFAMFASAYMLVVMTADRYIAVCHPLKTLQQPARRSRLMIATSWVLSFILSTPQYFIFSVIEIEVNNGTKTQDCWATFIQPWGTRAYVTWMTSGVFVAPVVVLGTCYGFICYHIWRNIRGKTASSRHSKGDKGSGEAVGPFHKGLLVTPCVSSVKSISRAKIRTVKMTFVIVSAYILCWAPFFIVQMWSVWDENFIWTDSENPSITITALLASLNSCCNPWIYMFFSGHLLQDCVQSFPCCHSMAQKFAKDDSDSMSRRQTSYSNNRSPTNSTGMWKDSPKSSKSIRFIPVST

Compound | IC50 (AVP-V1 sites; [1]) [nM] | IC50 (uterine OT receptors; [2]) [nM] | IC50 (AVP-V2 sites; [5]) [nM] | further results
CC[C@H](C)[C@@H]1NC(=O)[C@@H](Cc2ccc3ccccc3c2)NC(=O)[C@@H]2CCCN2C(=O)[C@@H](Cc2c[nH]cn2)NC(=O)[C@H]2CN(C(=O)OCc3ccccc3)CCN2C(=O)[C@H]2CCCCN2C1=O [Example 160, c-[D-2-Naphthylalanyl-L-isoleucyl-D-pipecolyl-D-piperazin-2-yl-(4-carbobenzyloxy)-D-hystidyl-L-prolyl]] (cyclo(I[dPip][dPip(4-aza,4-Cbz)][dH]P[d2Nal])) | > 1000 | – | – | inhibition at 0.01 µM (uterine OT receptors; 1 h, @ 10 (nM), read-out: [^3 H]OT: percent inhibition of radioligand at the given concentration): 53%; inhibition at 1 µM (AVP-V2 sites; 0.5 h, @ 1,000 (nM), read-out: [^3 H]-AVP-V2: percent inhibition of radioligand at the given concentration): 66%
CC[C@H](C)[C@@H]1NC(=O)[C@@H](Cc2ccccc2)NC(=O)[C@@H]2CCCN2C(=O)[C@@H](Cc2ccccc2)N(C)C(=O)[C@H](CC(=O)NCCN)NC(=O)[C@H]2CCCCN2C1=O [Example 119, c-[D-Phenylalanyl-L-isoleucyl-D-pipecolyl-N^β -(aminoethyl)-L-asparagyl-N-methyl-D-phenylalanyl-L-prolyl]] (cyclo(D(Ethylenediamine)[dNMeF]P[dF]I[dPip])) | – | 260 | – | IC50 (AVP-V1 sites; [3]): 7300 nM; IC50 (AVP-V2 sites; [4]): 3100 nM
CC[C@H](C)[C@@H]1NC(=O)[C@@H](Cc2cn(CC(=O)OC(C)(C)C)c3ccccc23)NC(=O)[C@@H]2CCCN2C(=O)[C@@H](Cc2ccccc2)N(C)C(=O)[C@@H]2CN(CC(=O)OC(C)(C)C)CCN2C(=O)[C@H]2CCCCN2C1=O [Example 182, c-[D-Tryptophanyl(t-butylacetyl)-L-isoleucinyl-D-pipecolyl-L-piperazin-2-yl(4-t-butylacetyl)-D-(N^α -Me)phenylalanyl-L-prolyl]] | > 10000 | – | > 10000 | inhibition at 1 µM (uterine OT receptors; 1 h, @ 1,000 (nM), read-out: [^3 H]OT: percent inhibition of radioligand at the given concentration): 56%
CC[C@H](C)[C@@H]1NC(=O)[C@@H](Cc2ccccc2)NC(=O)[C@@H]2CCCN2C(=O)[C@@H](Cc2ccccc2)NC(=O)[C@H]2CN(C(=O)OCc3ccccc3)CCN2C(=O)[C@H]2CCCCN2C1=O [Example 76, c-[D-Phenylalanyl-L-isoleucinyl-D-pipecolyl-D-piperazin-2-yl(4-Cbz)-D-phenylalanyl-L-prolyl]] (cyclo(I[dPip][dPip(4-aza,4-Cbz)][dF]P[dF])) | – | 460 | – | IC50 (AVP-V1 sites; [3]): 9300 nM; IC50 (AVP-V2 sites; [4]): 10600 nM
CC[C@H](C)[C@@H]1NC(=O)[C@@H](Cc2c[nH]c3ccccc23)NC(=O)[C@@H]2CCCN2C(=O)[C@@H](Cc2c[nH]cn2)NC(=O)[C@H](CCCCNC(=O)OCc2ccccc2)NC(=O)[C@H]2CCCCN2C1=O [Example 38, Cyclo[D-tryptophanyl-L-isoleucyl-D-pipecolyl-L-(carbobenzyloxy)lysyl-D-histidyl-L-prolyl]] (cyclo(I[dPip]K(Cbz)[dH]P[dW])) | > 1000 | – | 10000 | inhibition at 0.1 µM (uterine OT receptors; [6]): 60%
CC[C@H](C)[C@@H]1NC(=O)[C@@H](Cc2ccc3ccccc3c2)NC(=O)[C@@H]2CCCN2C(=O)[C@@H](Cc2c[nH]cn2)NC(=O)[C@@H]2CCCCN2C(=O)[C@H]2CCCCN2C1=O [Example 12, Cyclo[D-2-naphthalalanyl-L-isoleucyl-D-pipecolyl-L-pipecolyl-D-histidyl-L-prolyl]] (cyclo(I[dPip][Pip][dH]P[d2Nal])) | > 1000 | 1.2 | – | IC50 (AVP-V2 sites; [7]): > 1000 nM
CC[C@H](C)[C@@H]1NC(=O)[C@@H](Cc2ccccc2)NC(=O)[C@@H]2CCCN2C(=O)[C@@H](Cc2ccc(OCc3ccccc3)cc2)N(C)C(=O)[C@@H]2CCCCN2C(=O)[C@H]2CCCCN2C1=O [Example 28, Cyclo[D-phenylalanyl-L-isoleucyl-D-pipecolyl-L-pipecolyl-D-(N^α methyl-O-Benzyl)-tyrosyl-L-prolyl]] (cyclo(I[dPip][Pip][dNMeY](Bn)P[dF])) | > 10000 | – | 10000 | inhibition at 0.1 µM (uterine OT receptors; [6]): 28%
CC[C@H](C)[C@@H]1NC(=O)[C@@H](Cc2ccccc2)NC(=O)[C@@H]2CCCN2C(=O)[C@@H](Cc2ccccc2)N(C)C(=O)[C@H](CC(=O)OC(C)(C)C)NC(=O)[C@H]2CCCCN2C1=O [Example 115, c-[D-Phenylalanyl-L-isoleucyl-D-pipecolyl(O-tert-butyl)-L-aspartyl-N-methyl-D-phenylalanyl-L-prolyl]] (cyclo(D(OtBu)[dNMeF]P[dF]I[dPip])) | > 10000 | 460 | 10000 | –
CC[C@H](C)[C@@H]1NC(=O)[C@@H](C)NC(=O)[C@@H]2CCCN2C(=O)[C@@H](Cc2ccccc2)NC(=O)[C@@H]2CCCCN2C(=O)[C@H]2CCCCN2C1=O [Example 2, Cylco[D-alanyl-L-isoleucyl-D-pipecolyl-L-pipecolyl-D-phenylalanyl-L-prolyl]] (cyclo(I[dPip][Pip][dF]P[dA])) | > 10000 | > 10000 | > 10000 | –
C-[D,L-3-(3-(5-Methoxy)indolyl)alanyl-L-isoleucyl-D-pipecolyl-L-pipecolyl-D-histidyl-L-prolyl] [Example 156] | – | 1100 | > 30000 | IC50 (AVP-V1 sites; rat liver membranes, 1 nM [^3 H]AVP, read-out: Receptor Binding Results IC50 (nM) [^3 H]-AVP-V1): > 30000 nM
CC[C@H](C)[C@@H]1NC(=O)[C@@H](Cc2ccccc2)NC(=O)[C@@H]2CCCN2C(=O)[C@@H](Cc2ccccc2)N(C)C(=O)[C@H]2CN(C(=O)OCc3ccccc3)CCN2C(=O)[C@H]2CN(C(=O)OCc3ccccc3)CCN2C1=O [Example 85, c-[Phenylalanyl-L-isoleucinyl-D-piperazin-2-yl(4-Cbz)-D-piperazin-2-yl(4-Cbz)-D-(N^α -methyl)phenylalanyl-L-prolyl]] (cyclo([dF]I[dPip(4-aza,4-Cbz)][dPip(4-aza,4-Cbz)][dNMeF]P)) | > 10000 | 1000 | 10000 | –
CC[C@H](C)[C@@H]1NC(=O)[C@@H](Cc2ccccc2)NC(=O)[C@@H]2CCCCN2C(=O)[C@@H](Cc2ccccc2)N(C)C(=O)[C@@H]2CCCCN2C(=O)[C@H]2CCCCN2C1=O [Example 108, c-[D-phenylalanyl-L-isoleucyl-D-pipecolyl-L-pipecolyl-N-methyl-D-phenylalanyl-L-pipecolyl]] (cyclo(I[dPip][Pip][dNMeF][Pip][dF])) | 10000 | – | 10000 | IC50 (uterine OT receptors; [8]): 655 nM
CC[C@H](C)[C@@H]1NC(=O)[C@@H](CCc2ccccc2)NC(=O)[C@@H]2CCCN2C(=O)[C@@H](Cc2ccccc2)N(C)C(=O)[C@@H]2CCCCN2C(=O)[C@H]2CCCCN2C1=O [Example 165, c-[D-Homophenylalanyl-L-isoleucyl-D-pipecolyl-L-pipecolyl-N-Me-D-phenylalanyl-L-prolyl]] (cyclo(I[dPip][Pip][dNMeF]P[d(hPhe)])) | – | 150 | – | IC50 (AVP-V1 sites; [3]): 6600 nM; IC50 (AVP-V2 sites; [4]): 2600 nM
CC[C@H](C)[C@@H]1NC(=O)[C@@H](Cc2c[nH]c3ccccc23)NC(=O)[C@@H]2CCCN2C(=O)[C@@H](Cc2cnc[nH]2)NC(=O)[C@@H]2CCCCN2C(=O)[C@H]2CCC=NN2C1=O [Example 184, c-[D-Tryptophanyl-L-isoleucinyl-D-Δ-piperazyl-L-pipecolyl-D-histidyl-L-prolyl]] (cyclo(I[dPiz(1,6-dehydro)][Pip][dH]P[dW])) | – | – | 1050 | IC50 (uterine OT receptors; [8]): 6 nM; IC50 (AVP-V1 sites; [3]): 3980 nM
CC[C@H](C)[C@@H]1NC(=O)[C@@H](Cc2c[nH]c3ccccc23)NC(=O)[C@@H]2CCCN2C(=O)[C@@H](CC(=O)OC(C)(C)C)NC(=O)[C@@H]2CCCCN2C(=O)[C@H]2CCCCN2C1=O [Example 172, c-[D-Tryptophanyl-L-isoleucinyl-D-pipecolyl-L-pipecolyl-D-(β-t-butyl)aspartyl-L-prolyl]] (cyclo(I[dPip][Pip][dD](OtBu)P[dW])) | > 10000 | – | > 10000 | inhibition at 0.1 µM (uterine OT receptors; [6]): 20%
CC[C@H](C)[C@@H]1NC(=O)[C@@H](Cc2c[nH]c3ccccc23)NC(=O)[C@@H]2CCCN2C(=O)[C@@H](Cc2ccccc2)NC(=O)[C@@H]2CNCCN2C(=O)[C@H]2CCCCN2C1=O [Example 87, c-[D-Tryptophanyl-L-isoleucinyl-D-pipecolyl-L-piperazin-2-yl-D-phenylalanyl-L-prolyl]] (cyclo(I[dPip][Pip(4-aza)][dF]P[dW])) | > 10000 | 62 | – | IC50 (AVP-V2 sites; [7]): > 1000 nM
